In paper PMC9246869, “Allosteric inhibition of PPM1D serine/threonine phosphatase via an altered conformational state” (Nature Communications, 2022):
Several values for one entry are separate records, joined by “and”; a condition that tells them apart may be missing. Equal values may be shown once.

Legend:
Type in all cases: binding
PPM1DΔhinge [1] = target: T1, PPM1DΔhinge (Homo sapiens, UniProt O15297, DEL155-163/G166S/M164G/T165G); assay: Isothermal titration calorimetry (ITC); details: Sup Fig 5C
T1 construct: PPM1D1–154-GGS-167–420 (PPM1D∆hinge); His(6)-SUMO (N, cleaved yes); made in house; host or cells: E. coli BL21 (DE3)
T1 sequence (O15297 with tags, fused parts or gaps DEL155-163/M164G/T165G/G166S): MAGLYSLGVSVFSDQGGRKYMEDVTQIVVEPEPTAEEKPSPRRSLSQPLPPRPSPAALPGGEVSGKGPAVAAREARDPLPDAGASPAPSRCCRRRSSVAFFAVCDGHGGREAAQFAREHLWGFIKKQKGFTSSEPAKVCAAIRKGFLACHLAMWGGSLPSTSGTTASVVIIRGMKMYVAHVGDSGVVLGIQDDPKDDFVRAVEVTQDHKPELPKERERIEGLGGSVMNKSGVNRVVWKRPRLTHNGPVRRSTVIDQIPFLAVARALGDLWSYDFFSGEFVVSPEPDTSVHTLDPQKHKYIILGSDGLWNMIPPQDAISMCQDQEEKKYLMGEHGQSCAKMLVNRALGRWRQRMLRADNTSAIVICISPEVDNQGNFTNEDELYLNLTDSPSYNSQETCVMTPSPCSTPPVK
Experimental: (§1) Assessments of the analog of GSK2830371 (analog 1d) binding to wild-type and mutant proteins were conducted using an Auto-iTC200 microcalorimeter (Malvern) (see section on synthesis of analog 1d below). The protein was dialyzed extensively into 25 mM HEPES (pH 7.4), 150 mM NaCl, 10 mM MgCl2 and 1 mM TCEP. The dialyzed protein was used to prepare fresh working solutions of protein (20 µM) and analog 1d (200 µM) in 2% DMSO (v/v) in the same buffer. Titrations were performed at 25 °C and consisted of a single initial injection of 0.4 µL, followed by 19 injections of 2 µL of compound into a sample cell containing wild-type or mutant PPM1D, with an interval of 150 s between successive injections. The reference power and stirring speed were set at […] and 1000 RPM, respectively. Heat of dilution and mixing were obtained from injections of analog 1d into ITC buffer lacking protein and subtracted from the integrated data before curve fitting. Thermodynamic data were analyzed using Origin 7.0 software and fitted by non-linear regression to the model for a single binding site.

PPM1DΔflap [2] = target: T2, PPM1DΔflap (Homo sapiens, UniProt O15297, DEL219-231/DEL235-284/E287S/S285N); assay: Isothermal titration calorimetry (ITC); details: Sup Fig 5A
T2 construct: PPM1D1–218-GGSNGS-288–420 (PPM1D∆flap); His(6)-SUMO (N, cleaved yes); made in house; host or cells: E. coli BL21 (DE3)
T2 sequence (O15297 with tags, fused parts or gaps DEL219-231/DEL235-284/S285N/E287S): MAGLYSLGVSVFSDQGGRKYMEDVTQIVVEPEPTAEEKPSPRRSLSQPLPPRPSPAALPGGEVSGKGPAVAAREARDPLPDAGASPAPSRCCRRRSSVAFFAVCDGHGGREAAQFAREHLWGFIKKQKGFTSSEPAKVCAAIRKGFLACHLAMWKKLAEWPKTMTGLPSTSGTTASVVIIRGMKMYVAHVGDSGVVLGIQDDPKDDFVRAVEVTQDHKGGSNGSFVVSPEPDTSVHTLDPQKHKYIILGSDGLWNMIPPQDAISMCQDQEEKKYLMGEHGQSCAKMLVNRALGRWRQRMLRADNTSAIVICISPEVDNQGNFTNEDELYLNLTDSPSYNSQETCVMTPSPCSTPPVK
Experimental: as §1

PPM1DΔhinge [3] = target: T1, PPM1DΔhinge; assay: Surface plasmon resonance (SPR)
Experimental: (§2) SPR was carried out on the Biacore S200 (GE Healthcare) using Series S sensor chip NTA (GE BR-1005-32). The preparation of the chip surface was conducted according to the manufacturer’s indications. The running buffer contained 50 mM Tris (pH 7.5), 50 mM NaCl, 1 mM MgCl2, 0.5 mM TCEP, 0.005% (v/v) P20 surfactant, and 2% DMSO. PPM1D1–420 and PPM1D∆Flap were run under single-cycle mode due to the slow-off-rate kinetics. The two proteins were immobilized on the chip surface in flow cells 2 and 3 with a signal of ~1500–2000 RU at a rate of 5 μL/min while flow cell 1 was left blank as a reference. The running buffer was injected three times followed by the GSK2830371 analyte in solution. Injections were carried out at a flow rate of 50 μL/min with the analyte in a concentration series of 5-point, 3-fold ending at 400 nM top dose. The association and dissociation phases were monitored for 90 s and 600 s, respectively. Collected data were evaluated using the Biacore S200 Evaluation Software under 1:1 binding mode. PPM1D∆Hinge was run under multi-cycle mode due to its fast-on/fast-off kinetics. The protein was immobilized to give a signal of ~ 3000 RU. GSK2830371 analyte in solution was injected at a flow rate of 90 μL/min in a 10-pt, 2-fold concentration series ending at 15 μM top dose. The association and dissociation phases were monitored for 45 s and 150 s, respectively. Since GSK2830371 had issues with solubility/aggregation at high concentrations that caused artifacts in sensorgrams, only steady-state analysis was performed to extract Kd.

PPM1DΔflap [4] = target: T2, PPM1DΔflap; assay: Surface plasmon resonance (SPR)
Experimental: as §2

[5] = ITC stoichiometry, average of 2 trials

Cc1ncc(Cl)cc1NCc1ccc(C(=O)N[C@@H](CC2CCCC2)C(=O)NC2CC2)s1 [GSK2830371]
N Average (PPM1DΔhinge [1]; [5]): 0.8785 | DH Average (PPM1DΔhinge [1]; ITC, average of 2 trials): -3.817 kcal/mol | DS Average (PPM1DΔhinge [1]; ITC, average of 2 trials): 13.65 cal/mol/deg | DH (PPM1DΔhinge [1]; ITC, individual trials): -3.047 kcal/mol and -4.587 kcal/mol | DS (PPM1DΔhinge [1]; ITC, individual trials): 16.6 cal/mol/deg and 10.7 cal/mol/deg | N Average (PPM1DΔflap [2]; [5]): 1.11 | DH Average (PPM1DΔflap [2]; ITC, average of 2 trials): -14.43 kcal/mol | DS Average (PPM1DΔflap [2]; ITC, average of 2 trials): -12.15 cal/mol/deg | Kd (PPM1DΔflap [2]; ITC, average of 2 trials, read-out: Kd Average): 11.9 nM | DH (PPM1DΔflap [2]; ITC, individual trials): -14.15 kcal/mol and -14.71 kcal/mol | DS (PPM1DΔflap [2]; ITC, individual trials): -11.3 cal/mol/deg and -13 cal/mol/deg | Kd (PPM1DΔflap [2]; ITC, individual trials, read-out: Kd): 12.2 nM and 11.5 nM | decrease in binding affinity by SPR upon hinge deletion (PPM1DΔhinge [3]; PPM1DΔhinge versus PPM1D1–420): ~ 1000 fold | Kd (PPM1DΔhinge [3]; PPM1DΔhinge, multi-cycle, steady-state analysis): 1000 nM | Kd (PPM1DΔflap [4]; PPM1DΔflap, Fig. 6A): 1 nM | koff (PPM1DΔflap [4]; read-out: koff (SPR)): 0.0045 s⁻¹ | kon (PPM1DΔflap [4]; read-out: kon (SPR)): 5e+06 M⁻¹ s⁻¹
